Calls of active or inactive are those of the source. No cut-off for these calls is given here.
Key:
[1] = Stimulation of insulin secretion in rat INS-1E cells after 1 hr by alphaLISA assay in presence of 0.1 mM glucose relative to IBMX; format: functional
[2] = (§1) Stimulation of insulin secretion in rat INS-1E cells after 1 hr by alphaLISA assay in presence of 0.1 mM glucose; format: functional, cell-based
[3] = Stimulation of insulin secretion in rat INS-1E cells after 1 hr by alphaLISA assay in presence of 5 mM glucose relative to IBMX; format: functional
[4] = Stimulation of insulin secretion in rat INS-1E cells after 1 hr by alphaLISA assay in presence of 5 mM glucose; format: functional, cell-based
INS-1E = assay: as §1; format: functional, cell-based
Pancreatic islet [5] = assay: Stimulation of insulin secretion in rat pancreatic islets at 3 uM in presence of 11 mM glucose; format: functional
Pancreatic islet [6] = assay: Stimulation of insulin secretion in rat pancreatic islets at 3 uM in presence of 3 mM glucose; format: functional
Pancreatic islet [7] = assay: Stimulation of insulin secretion in rat pancreatic islets in presence of 11 mM glucose; format: functional

EC50 [4] | Compound | Emax [3] | Activity (INS-1E) | other results
0.003 µM | COc1ccc(Cl)cc1C(=O)NCCc1ccc(S(=O)(=O)NC(=O)NC2CCCCC2)cc1 [GLYBURIDE] | 50% |  | Emax [1]: 17%; EC50 [2]: 0.007 µM
1 µM | Cc1ccc([C@H]2C[C@H]3CC[C@H](CCc4ccccc4)N3C(=N)N2)cc1 (mixture of isomers) | 40% | inactive | 
2.74 µM | N=C1N[C@H](c2ccccc2)C[C@H]2CC[C@H](CCc3ccccc3)N12 | 21% |  | 
> 33 µM | CC(C)(C)OC(=O)/N=C1\N[C@@H](c2ccccc2)C[C@H]2CC[C@H](CCc3ccccc3)N12 |  | inactive | 
0.83 µM | N=C1N[C@@H](c2ccccc2)C[C@H]2CC[C@H](CCCc3ccccc3)N12 (mixture of isomers) | 31% | inactive | 
> 33 µM | N=C1NCC[C@H]2CC[C@H](CCc3ccccc3)N12 |  | inactive | 
> 33 µM | N=C1N[C@@H](c2ccc(C(F)(F)F)cc2)C[C@H]2CC[C@H](CCc3ccccc3)N12 |  | inactive | 
1.01 µM | Cc1ccccc1[C@H]1C[C@H]2CC[C@H](CCc3ccccc3)N2C(=N)N1 | 59% | inactive | Activity (Pancreatic islet [5]): Active; Activity (Pancreatic islet [6]): inactive
1.25 µM | N=C1N[C@@H](c2ccccc2)C[C@H]2CC[C@H](CCc3ccccc3)N12 | 34% |  | EC50 [2]: > 33 µM
1.1 µM | Cc1cccc([C@H]2C[C@H]3CC[C@H](CCc4ccccc4)N3C(=N)N2)c1 (mixture of isomers) | 20% | inactive | 
0.63 µM | N=C1N[C@@H](c2ccc(Br)cc2)C[C@H]2CC[C@H](CCc3ccccc3)N12 | 23% | inactive | 
0.67 µM | CN1C(=N)N2[C@@H](CCc3ccccc3)CC[C@@H]2C[C@@H]1c1ccccc1 | 29% | inactive | 
4.74 µM | N=C1N[C@@H](c2ccccc2)C[C@H]2CC[C@H](Cc3ccccc3)N12 | 52% | inactive | 
> 33 µM | N=C1N[C@@H](c2ccccc2)C[C@H]2CC[C@H](c3ccc(-c4ccccc4)cc3)N12 |  | inactive | 
> 33 µM | N=C1N[C@@H](c2ccccc2)C[C@H]2CC[C@H](COc3ccccc3)N12 |  | inactive | 
1.3 µM | C[C@@H]1[C@H]2CC[C@H](CCc3ccccc3)N2C(=N)N[C@H]1c1ccccc1 | 27% |  | Activity (Pancreatic islet [7]): Active; EC50 [2]: > 33 µM
1.33 µM | N=C(N)N1C(CCc2ccccc2)CCC1Sc1ccccc1 (centres undefined) | 62% | inactive | 
2.47 µM | N=C(NCc1ccccc1)N1CCCC1CCc1ccccc1 (centres undefined) | 84% | inactive | 
> 33 µM | Cc1cc(C)c(Nc2cccc(CC[C@H]3CC[C@@H]4C[C@H](c5ccccc5)NC(=N)N34)c2)c(C)c1 |  | inactive | 

EC50 [4] | Compound | Emax [3] | Activity (INS-1E) | other results
4.04 µM | N=C1N[C@@H](c2ccc(F)cc2)C[C@H]2CC[C@H](CCc3ccccc3)N12 | 26% | inactive | 
> 33 µM | Cn1cc(CC[C@H]2CC[C@@H]3C[C@H](c4ccccc4)NC(=N)N23)cn1 |  | inactive | 
1.01 µM | N=C1N[C@@H](c2cccc(Br)c2)C[C@H]2CC[C@H](CCc3ccccc3)N12 | 22% | inactive | 
> 33 µM | N=C1N[C@@H](c2ccccc2)C[C@H]2CC[C@H](CCc3ccncc3)N12 |  | inactive | 
> 33 µM | CC(=O)Nc1ccc([C@H]2C[C@H]3CC[C@H](CCc4ccccc4)N3C(=N)N2)cc1 |  | inactive | 
1.45 µM | C/C=C/[C@H]1C[C@H]2CC[C@H](CCc3ccccc3)N2C(=N)N1 | 21% |  | EC50 [2]: > 33 µM
0.67 µM | N=C1N[C@@H](c2ccccc2Br)C[C@H]2CC[C@H](CCc3ccccc3)N12 (mixture of isomers) | 52% | inactive | 
0.45 µM | N=C1N[C@@H](c2ccccc2)C[C@H]2CC[C@H](CCc3cccc(Br)c3)N12 | 26% | inactive | 
> 33 µM | N=C1N[C@@H](c2ccccc2)C[C@H]2CC[C@H](c3ccccc3)N12 |  | inactive | 
1.37 µM | Cc1cc(C)c(Nc2ccccc2CC[C@H]2CC[C@@H]3C[C@H](c4ccccc4)NC(=N)N23)c(C)c1 | 54% | inactive | 
5.74 µM | N=C(N)N1C(CCc2ccccc2)CCC1Cc1ccccc1 (mixture of isomers) | 56% | inactive | 
> 33 µM | Cc1cc(C)c(Nc2ccc(CC[C@H]3CC[C@@H]4C[C@H](c5ccccc5)NC(=N)N34)cc2)c(C)c1 |  | inactive | 
> 33 µM | O=C1N[C@@H](c2ccccc2)C[C@H]2CC[C@H](CCc3ccccc3)N12 |  | inactive | 
0.75 µM | N=C1N[C@@H](C2CCCCC2)C[C@H]2CC[C@H](CCc3ccccc3)N12 | 40% | inactive | 
> 33 µM | N=C1N[C@@H](c2ccc(C(=O)O)cc2)C[C@H]2CC[C@H](CCc3ccccc3)N12 |  | inactive | 
4.79 µM | N=C1NC(c2ccccc2)CCN1CCCc1ccccc1 (centres undefined) | 39% | inactive | 
5.03 µM | N=C(N)N1C(Sc2ccccc2)CCC1c1ccccc1 (mixture of isomers) | 54% | inactive | 
0.76 µM | COc1cccc([C@H]2C[C@H]3CC[C@H](CCc4ccccc4)N3C(=N)N2)c1 (mixture of isomers) | 21% | inactive | 
4.87 µM | N=C(N)N1C(CCc2ccccc2)CCC1CCc1ccccc1 (mixture of isomers) | 29% | inactive | 

Compound | EC50 [4] | Emax [3] | Activity (INS-1E) | other results
CCC[C@H]1CC[C@@H]2C[C@H](c3ccccc3)NC(=N)N12 | 11.1 µM | 55% | inactive | 
N=C1N[C@@H](c2ccccc2)C[C@H]2CCCN12 (mixture of isomers) | > 33 µM |  | inactive | 

Source: ChEMBL document CHEMBL3112502, “The insulin secretory action of novel polycyclic guanidines: discovery through open innovation phenotypic screening, and exploration of structure-activity relationships” (Bioorg Med Chem Lett, 2014)
